# Results from US20240148745A1, “COMPOUNDS FOR USE IN PROGRESSIVE MULTIPLE SCLEROSIS” (FONDAZIONE CENTRO SAN RAFFAELE, priority 2021, published 2024).
# Columns and labels:
# [1] = system: rat oligodendrocyte progenitor CG4 line; assay: Differentiation assay on rat oligodendrocyte progenitor CG4 line (HCS, mCherry+); type: cell-based; details: secondary screen of 49 selected compounds, 1 μM, 5 days
# From the text: Primary validation on CG4 line toxicity and differentiation. An innovative OPC line was developed for fast and reliable high content screening (HCS) of small compounds inducing oligodendrocyte differentiation. The line was genetically engineered by lentiviral transduction of rat CG4 cells (PubMed=1613821; DOI=10.1002/jnr.490310125; Louis J. C., Magal E., Muir D., Manthorpe M., Varon S.; CG-4, a new bipotential glial cell line from rat brain, is capable of differentiating in vitro into either mature oligodendrocytes or type-2 astrocytes. J. Neurosci. Res. 31:193-204(1992) to express mCherry fluorescent reporter (Evercooren, Anne & Avellana-Adalid, V. & Vitry, Sandrine & Nait-Oumesmar, Brahim & Lachapelle, Francois. (1997). Expansion of Oligodendrocyte Progenitors for Myelin Repair. 10.1007/978-1-4615-5949-8_21) in mature oligodendrocytes only, and EGFP at all stage of the oligodendroglial lineage: both the generation of mature oligodendrocytes (wmNl-mCherry) and the morphological changes associated with differentiation (CMV-EGFP) can be therefore monitored in a single assay. mCherry expression occurred only in O4+/GalC+ differentiated oligodendrocytes and GFP was ubiquitously expressed at all developmental stages. The line so obtained was validated using compounds with well-established effects on oligodendrocyte differentiation (cAMP and T3). Cell-based assay was standardized on the HCS platform (ArrayScanXTI, Brain and Spine Institute (Paris), validating the pro-differentiation effects of clemastine^27 and 9cis-retinoic acid.^28 For HCS validation of 274 compounds identified through in silico screen, double-fluo CG4 line cells were plated in 96 well-plates, 6500 cells/cm^2 and left for 24 h in proliferation. The other day, compounds were added (1 μM) for next 5 days of differentiation, with ⅔ medium changed after 3 days. 9-cis Retinoic Acid (9cis-RA; […]) served as a positive control, negative controls were basal (N1) medium and vehicle (basal+0.1% DMSO). Each compound was tested in triplicate and were imaged with ArrayScanXTI system (35 fields/well) after 5 days of differentiation.
# FIG. 4 provides a schematic representation of High Content Screening (HCS) validation of the 274 compounds identified through in silico screening using CG4 line. […] In addition, the whole short list of 160 non-toxic compounds were screened using the CG4 high content phenotypic assay to further confirm the data from primary screening and to potentially select additional compounds with pro-myelinating activities. From this screening of the short list, 49 hit compounds were identified that increase differentiation either of CG4 cells or primary OPCs (FIG. 6).
# [2] = system: human iPS-derived neuroprecursors; assay: Differentiation of human iPS-derived neuroprecursors into MBP+ oligodendrocytes; type: cell-based; details: 1 μM in minimal medium, p<0.05
# From the text: NPC bearing a doxycycline inducible polycistronic construct containing SOX10, OLIG2 and NKX6.2^29 in a human safe harbor (passages 10 to 25) were singularized on day −3 by treatment with Accutase and plated on Matrigel-coated 12-well plates at a density of 100.000 cells per well in N2B27-medium containing equal parts of neurobasal (Invitrogen) and DMEM-F12 medium (Invitrogen) with 1:100 B27 supplement lacking vitamin A (Invitrogen), 1:200 N2 supplement (Invitrogen), 1% penicillin/streptomycin/glutamine (PSG), 3 μM CHIR99021 (Axon Medchem), 150 μM ascorbic acid and 0.5 μM SAG. The next day medium was changed to N2B27-medium containing 1 μg/ml doxycycline. On DO medium was changed to glial-induction medium (GIM) consisting of DMEM-F12 with 1:100 B27 supplement lacking vitamin A, 1:200 N2 supplement, 1% PSG, 1 μM SAG, 10 ng/mL NT3 (Peprotech), 10 ng/mL IGF-I (Peprotech), 200 μM AA (Sigma), 1:1000 Trace Elements B (Corning). For full medium conditions 10 ng/ml T3 was added. On Day 2 medium was changed to glial-differentiation medium (GDM) comprising DMEM-F12 with 1:100 B27 supplement lacking vitamin A, 1:200 N2 supplement, 1% PSG, 100 μM dbCAMP (Sigma), 100 μM AA, 1:1000. For full medium conditions 60 ng/mL T3, Trace Elements B 10 ng/mL, IGF-I, 10 ng/mL and NT3 were added to the culture. GDM was changed every other day. On day 7 cells were detached by treatment with Accutase and re-plated on laminin coated 48-well plates at densities of 10.000-12.000 cells per well. After 24 h cells were treated in minimal medium with either vehicle alone [0.01% (vol/vol) DMSO] as a negative control, 60 ng/mL T3 as a positive control, or with a drug candidate dissolved in DMSO. Medium was changed every other day. On D16 doxycycline was removed from the medium. Cells were fixed on D21 and analyzed via immunocytochemistry.
# Immunocytochemistry. Cells were initially fixed with 4% PFA treatment for 20 min, RT. Following three washes with PBS cells were incubated with blocking solution containing 5% normal goat serum (NGS) and 5% FCS (fetal calf serum) in PBS for 30 min at RT to prevent unspecific binding of the antibodies. To detect intracellular antigens cells were permeabilized by adding 0.5% Triton X-100 to the Blocking-solution. Cells treated with Triton X-100 were washed three times with PBS each time for 5 min at RT. Primary antibodies (rat anti-MBP,1:50, Abcam, AB7349) were applied overnight, 4° C., in blocking solution. The next day cells were washed 3 times with PBS at RT, and afterwards incubated with secondary antibodies (AF488 Alexa Fluor anti-rat (goat), 1:500, Jackson/Dianova, #112-545-167) diluted in PBS for 1 h at RT. Secondary antibodies were subsequently removed by washing 3 times with PBS. Afterwards PBS containing a Dapi staining for nuclei was added for 5 minutes and afterwards washed off with PBS. Cells were kept at 4° C. until imaging.
# Imaging and evaluation. From each condition (triplicates) 20-30 pictures were taken randomly chosen by the Dapi-signal. Cell numbers were determined by using an ImageJ Macro to count the nuclei whereas MBP positive cells were subsequently counted manually in black and white images.
# The effect on oligodendroglial differentiation of 32 compounds (“Front runners”) was tested. Induced pluripotent stem cells in which the transcription factors SOX10, OLIG2, NKX6.2 were inserted in a doxycycline inducible manner into a human safe harbor were differentiated into neural stem cells. Differentiation into oligodendrocytes was induced by addition of doxycycline. Cells were cultured either in a minimal medium (MM) (negative control) or in MM with the different compounds at a concentration of 1 μM. Addition of T3 to the minimal medium served as a positive control.
# [3] = system: primary murine spinal cord culture; assay: Myelinating cell cultures from primary murine spinal cord; type: cell-based, mouse; details: 1 μM
# Description: Single cell suspensions are prepared from spinal cord of mouse embryos (E13) (adapted from Thomson, 2008) and 1.5×10^5 cells/well were plated into 96 well plates. Over time, these cultures mature and form axons, which later myelinate. Using spinal cord tissue facilitates the quantification of mature MBP+ oligodendrocytes and newly formed myelin by in-house high-content imaging system (Operetta High Content Imaging System, Perkin Elmer) with a 20× lens. From each well, 25 fields in a 5×5 matrix were scanned. Thirty-two “Front Runners” compounds were tested in replicates of five at 1 μM/DMSO, while T3, benzotropine and clemastine were used as positive controls, DMSO as negative/solvent control. Two experimental paradigms were applied: “Early treatment”: exposure to experimental agent from DIV7 to DIV14; “Late treatment”: exposure to experimental agent from DIV14-DIV21. On DIV21, cultures were fixed and stained (myelin: MBP, axons: NF200; nuclei: Hoechst). Imaging data were analysed using CellProfiler and in-house generated analysis pipeline.
# Thirty-two “Front Runners” compounds were tested in replicates of five at 1 μM/DMSO, while T3, benztropine and clemastine were used as positive controls, DMSO as negative/solvent control. Two experimental paradigms were applied: “Early treatment”: exposure to experimental agent from DIV7 to DIV14; “Late treatment”: exposure to experimental agent from DIV14-DIV21. […] In “Late treatment” paradigm in myelin area evaluation were identified Vanoxerine, Roxadustat, Tamibarotene, Drinabant, Progesterone, Saracatinib. In quantification of myelinated axons were identified Vanoxerine, Drinabant, Roxadustat.
# rat primary OPC cultures = assay: Differentiation of rat primary OPC into MBP+ OLs; type: cell-based; details: 96 h, 4 days of differentiation, read-out: MBP+ differentiation (MBP+/SOX10+ OLs plus compounds / plus basal medium)
# Description: Secondary validation on primary rat OPC differentiation. Re-validation of the best performing compounds promoting OPC differentiation (fold change >1.5) was performed on primary rat OPC cultures in 96 well-plate run in triplicates by triple immunolabeling for CNPase, MBP and SOX10 as a readout. Compounds at […] were added for 4 days of differentiation and then cell cultures were imaged with ArrayScanXTI platform, number of MBP+OLs were quantified by semi-automated software. Basal medium served as a negative control, 9 cis-RA ([…]) was a positive control.
# Re-validation of the 49 compounds selected from the short list (160 compounds) using rat primary OPC cultures (compounds tested in triplicates in 3 independent experiments. The secondary validation screen of these compounds performed on rat primary OPC cultures selected 17 best lead compounds with a pro-differentiation activity (MBP+/SOX10+OLs plus compounds/MBP+SOX10+ plus basal medium fold increase) induced a strong differentiation into MBP+OLs (fold increase >1.6). Results are shown in FIG. 7.
SMILES,CG4 differentiation compared with 9cis-RA positive control [1],differentiation into MBP+ oligodendrocytes [2],myelin area ([3]; Early treatment DIV7 to DIV14),myelin area ([3]; Late treatment DIV14-DIV21),quantification of myelinated axons ([3]; Late treatment DIV14-DIV21),differentiation into MBP+ oligodendrocytes ([2]; listed as Drinibant),fold induction at 1 µM (rat primary OPC cultures),quantification of myelinated axons ([3]; Early treatment DIV7 to DIV14)
Cc1c(F)cccc1NC(=O)Nc1ccc(Cl)c(S(=O)(=O)[C@H]2CCCNC2)c1O [Danirixin],promoting differentiation significantly higher than 9cis-RA positive control,promote significantly (p<0.05) the differentiation into MBP+ oligodendrocytes,–,–,–,–,–,–
CS(=O)(=O)N(c1cc(F)cc(F)c1)C1CN(C(c2ccc(Cl)cc2)c2ccc(Cl)cc2)C1 [Drinabant],promoting differentiation significantly higher than 9cis-RA positive control,promote significantly the differentiation into MBP+ oligodendrocytes,identified,identified,identified,promote significantly (p<0.05) the differentiation into MBP+ oligodendrocytes,–,–
Cc1ccc(C(=O)Nc2ccc(Oc3cc4cnn(C)c4cc3-c3cn[nH]c3)c(F)c2)c(=O)n1-c1ccc(F)cc1 [Merestinib],promoting differentiation significantly higher than 9cis-RA positive control,promote significantly (p<0.05) the differentiation into MBP+ oligodendrocytes,–,–,–,–,–,–
CCNC(=O)C1CC(F)(c2ccc(CN3CCCC3)c(F)c2)C1 (stereo not drawn) [PF-03654746],promoting differentiation significantly higher than 9cis-RA positive control,promote significantly (p<0.05) the differentiation into MBP+ oligodendrocytes,identified,–,–,–,–,–
CCC/N=C1\S/C(=C\c2ccc(OC[C@H](O)CO)c(Cl)c2)C(=O)N1c1ccccc1C [Ponesimod],promoting differentiation significantly higher than 9cis-RA positive control,promote significantly (p<0.05) the differentiation into MBP+ oligodendrocytes,identified,–,–,–,–,–
CNC(=O)c1cc(COc2nnc(Nc3ccc(Cl)cc3)c3ccoc23)ccn1 [Telatinib],promoting differentiation significantly higher than 9cis-RA positive control,promote significantly (p<0.05) the differentiation into MBP+ oligodendrocytes,–,–,–,–,> 1.6,–
Fc1ccc(C(OCCN2CCN(CCCc3ccccc3)CC2)c2ccc(F)cc2)cc1 [Vanoxerine],promoting differentiation significantly higher than 9cis-RA positive control,–,identified,identified,identified,–,–,identified
